Key:
[1] = tested on: sgRNA target sites near CUL3; assay: Deep sequencing after CRISPR mutagenesis (indel analysis at sgRNA target sites); type: cell-based, human
Procedure: Deep Sequencing after CRISPR Mutagenesis
After 7 days of puromycin selection, A375 cells transduced with individual lentiCRISPRv2 sgRNAs were plated in 2 replicate wells (2×10^3 cells/well) in 96-well plates. Cells were plated in either R10+DMSO or R10+vemurafenib (2 uM). After 4 days (70-90% confluent), Applicants extracted gDNA from all wells (Illumina/Epicentre QuickExtract QE09050) and performed amplification and deep sequencing as previously described (Shalem et al. 2014). Briefly, for each sgRNA target site, Applicants designed PCR primers to amplify genomic regions surrounding the site (100-200 bp amplicons) and to add universal handles for the second stage of amplification (see table S3 for all deep sequencing primers). Applicants then used a second PCR step to add sequences needed for Illumina sequencing and sample barcoding. Applicants pooled all samples together and sequenced them on a MiSeq using a 250 bp single-end read (Illumina MS-102-2002).
Custom Python scripts were used for barcode demultiplexing and insertion-deletion (indel) length measurement. To measure indel length and eliminate any potential off-target or primer-dimer reads, Applicants first identified our genomic (first PCR step) primers in each read. Applicants then checked that each read contained at least 5 bases beyond each of the genomic primers. Typically, 80-90% of demultiplexed reads matched this criterion. Reads matching this criterion were used to measure indel length by comparing distances between the identified primer-adjacent sequences with those in the reference sequence. Further multiple alignment analysis for specific sgRNAs was done using Geneious's iterative k-mer multiple alignment tool (Geneious 6.1.7).

[2] = tested on: CUL3; assay: ddPCR quantification of CUL3 expression in A375 cells transduced with individual sgRNAs; type: cell-based, human; conditions: for decrease in CUL3 expression: A375, 7 days post-transduction, normalized to non-targeting sgRNAs; for CUL3 expression: A375, relative to non-targeting sgRNAs, result in words
Excerpt: Array Validation of Primary Screen Hits
For individual (array) validation of noncoding sgRNAs, Applicants first identified sgRNAs enriched in the top 5% of the library as given by the normalized log 2(Vemu/DMSO) read ratio. In order to have high confidence in these sgRNAs, Applicants used the minimum of the two infection replicates for the normalized log2 (Vemu/DMSO) read ratio. […] This ensures that putative noncoding functional elements were supported by the presence of at least 2 enriched sgRNAs. From this group, Applicants picked 25 sgRNAs distributed across different genomic regions for individual validation (see table S2 for a list of sgRNA sequences). Applicants also included 3 exon-targeting and 3 non-targeting sgRNAs to serve as positive and negative controls, respectively.
For each sgRNA, standard desalted short oligonucleotides (Integrated DNA Technologies) were annealed, phosphorylated and cloned into a lentiviral vector (lentiCRISPRv2, Addgene 52961) that contained Cas9 and an sgRNA cassette. For each sgRNA, A375 cells were transduced with lentiviral supernatants. After 24 hours, media was replaced with R10 with 1 ug/mL of puromycin. Viral volumes were titered such that 20-40% of cells survived after puromycin selection. After selection and expansion for 7 days in puromycin, cell were plated for DNA/RNA extraction, vemurafenib resistance, or ChIP assays.
RNA Extraction and ddPCR Quantification of CUL3 Expression
After 7 days of puromycin selection, A375 cells transduced with individual lentiCRISPRv2 sgRNAs were plated in 3 replicate wells (2×10^3 cells/well) in 96-well plates. After 4 days (70-90% confluent), RNA was extracted using a homemade version of a rapid lysis kit for quantitative PCR (similar to commercial “Cells-to-Ct”-style kits). This procedure (detailed below) enables rapid RNA extraction and qPCR/ddPCR readout from 96-well plates with minimal hands-on time.
Cells were first washed in 100 ul of chilled phosphate-buffered saline (PBS). Then, cells were incubated at room temperature for 8 minutes in 50 ul of Complete Lysis Buffer. The Complete Lysis Buffer consists of the Base Lysis Buffer with freshly added 100 ug/ml Proteinase K (Sigma P2308) and 300 U/mL DNase I (Sigma D2821). When adding DNase I, it is important to not vortex but mix only by gentle pipetting. The Base Lysis Buffer is made in RNAse-free water (ThermoFisher Scientific 10977015) with 10 mM Tris pH8 (Ambion AM9856), 0.5 mM MgCl2 (Sigma M1028), 0.44 mM CaCl2 (Sigma 21115), 10 uM DTT (Sigma 43816), 0.1% Triton X-114 (Calbiochem 648468), and 1.73 mN HCl (Sigma 318965) and should have a final pH of 7.8. The Base Lysis Buffer is stable at 4° C. for up to 6 months.
After the 8-minute incubation in Complete Lysis Buffer, 30 ul of the cell lysis was added to new PCR plates containing 3 ul of STOP buffer in each well to stop the lysis reaction. The STOP buffer is made in RNAse-free water with 1 mM Proteinase K inhibitor AAPF N-(Methoxysuccinyl)-Ala-Ala-Pro-Phe-chloromethyl ketone (SEQ ID NO: 174) (Millipore 539470), 90 mM EDTA (ThermoFisher Scientific 15575020), and 113 uM DTT (Sigma 43816). The final pH of the STOP buffer should be 8, adjusted appropriately with HCl and KOH. The STOP buffer is stable for up to 6 months at 20° C. The lysis reaction was mixed with the STOP buffer by pipetting up and down 5 times. Applicants then incubated the lysis and STOP buffer for at least 2 minutes but not more than 20 minutes. (Extra stopped lysis can be stored at −80° C. for up to 5 months.)
Applicants transferred 5 ul of the stopped lysis to new PCR plates with 20 ul of RT master mix. The RT master mix is from the RevertAid Reverse Transcriptase kit (ThermoFisher Scientific K1691) and is as described in the manufacturer's protocol but with an added oligo-dT primer. […]

[3] = tested on: CTCF; assay: ChIP-ddPCR for CTCF; type: cell-based, human; conditions: ChIP-ddPCR at the site after editing
Procedure: (§1) Chromatin Immunoprecipitation (ChIP) for Histone Modifications and Transcription Factors
(§2) After 7 days of puromycin selection, A375 cells transduced with individual lentiCRISPRv2 sgRNAs were plated in T-225 flasks and grown to 70-90% confluence (6 days). At this point, chromatin fixation was initiated by adding formaldehyde directly to the growth media (final concentration 1%) and incubating at 37° C. for 10 minutes. The entire two-day ChIP procedure was performed using the Magna ChIP HiSens Chromatin Immunoprecipitation Kit (Millipore 1710460), as specified in the manufacturer's protocol. […]
(§3) Using BatchPrimer3, Applicants designed primers centered on the sgRNA target site with a target amplicon size of 80-120 bp (see table S4 for ChIP-ddPCR primers). Droplet digital PCR (ddPCR) reactions using EvaGreen (BioRad 1864034) were used to quantify changes between input, histone/TF ChIP, and IgG ChIP samples for A375 cells transduced with specific sgRNAs and untransduced A375 cells. […] Applicants calculated the percent change in ChIP signal after genome editing by normalizing each ChIP sample to its corresponding input sample and then comparing the normalized ChIP between A375s transduced with specific sgRNAs and untransduced (control) A375 cells.

[4] = tested on: YY1; assay: ChIP-ddPCR for YY1; type: cell-based, human; conditions: ChIP-ddPCR around cut site vs non-targeting sgRNA
Procedure: as §1, §2, §3

[5] = tested on: ZNF263; assay: ChIP-ddPCR for ZNF263; type: cell-based, human; conditions: ChIP-ddPCR vs non-targeting sgRNA
Procedure: as §1, §2, §3

[6] = tested on: FOS; assay: ChIP-ddPCR for FOS; type: cell-based, human; conditions: ChIP-ddPCR compared with control cells
Procedure: as §1, §2, §3

[7] = tested on: JUN; assay: ChIP-ddPCR for JUN; type: cell-based, human; conditions: ChIP-ddPCR compared with control cells
Procedure: as §1, §2, §3

[8] = tested on: human BCL11A erythroid enhancer; assay: Tiled pooled CRISPR-Cas9 screen for in situ functional mapping of the human BCL11A erythroid enhancer (HbF-high/HbF-low sort, sgRNA deep sequencing); type: cell-based; conditions: for Enrichment Score: HbF enrichment, human library NGG and NGG RC sgRNAs filtered for enrichment score >0.259; for Dropout Score: human library sgRNAs that produced HbF enrichment over 0.259
In short: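 HUDEP-2 cells stably expressing Cas9 transduced at low multiplicity with tiled sgRNA library covering +55/+58/+62 DHS, selected with blasticidin/puromycin, expanded one week then differentiated one week. Top and bottom 10% HbF-stained cells FACS-sorted; sgRNA representation determined by deep sequencing of genomic DNA.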

## CTCF sg1: validation sgRNA GCCACAGCCATGCCCAGTOG, SEQ ID NO 446, 3′ of CUL3 (guide GCCACAGCCATGCCCAGTGG; expressed or natural sequence)
[1]; A375, deep sequencing of the site
  mean indel size: −9.5 bp
[1]; A375 after 7 days selection
  amplicons / alleles containing insertion-deletion (indel) mutations: 96%
[2]
  decrease in CUL3 expression: 30%
[3]
  decrease of CTCF occupancy: 45%

## 5′-UTR sg2: validation sgRNA GCGCTCCTCCGCGATGGCGG, SEQ ID NO 456, 5′ UTR (expressed or natural sequence)
[1]; A375, vemurafenib vs DMSO control, 4 days
  indel mutations that damage a YY1 binding motif: more indel mutations that damage a YY1 binding motif
[2]
  CUL3 expression: significantly decrease
[4]
  decrease of YY1 binding: 67%

## Intron-sg2: validation sgRNA CGCGGAGTCCTCCCTGTGTG, SEQ ID NO 455, intron and promoter (expressed or natural sequence)
[5]
  ZNF263 occupancy: significant decrease
[2]
  CUL3 expression: decrease in CUL3 expression

## 5′-UTR sg1: validation sgRNA AGGAGGAGGAGGACGACGTT, SEQ ID NO 457, 5′ UTR (expressed or natural sequence)
[2]
  CUL3 expression: significantly decrease
[4]
  decrease of YY1 binding: 26%

## distal 3′ sg2: validation sgRNA GCAGCGTCCGGAGTTGGCAC, SEQ ID NO 444, 3′ of CUL3 (expressed or natural sequence)
[6]
  FOS binding: decreased
[7]
  JUN binding: decreased
[2]
  decrease in CUL3 expression: ~25%

## distal 3′ sg1: validation sgRNA AGOACACAGTCATAACCACA, SEQ ID NO 445, 3′ of CUL3 (guide AGCACACAGTCATAACCACA; expressed or natural sequence)
[6]
  FOS binding: decreased
[7]
  JUN binding: decreased
[2]
  decrease in CUL3 expression: ~25%

## BCL_01629_H_D58 (guide TCTGATTAGGGTGGGGGCGTNGGRC; listed as DNA, chemistry not given here)
[8]
  Enrichment Score: 1.104
  Dropout Score: 0.1807

## BCL_02003_H_exon2 (guide AAATAAGAATGTCCCCCAATNGGRC; listed as DNA, chemistry not given here)
[8]
  Enrichment Score: 1.085
  Dropout Score: −0.09695

## BCL_01665_H_D58 (guide TGTAACTAATAAATACCAGGNGGRC; listed as DNA, chemistry not given here)
[8]
  Enrichment Score: 0.4418
  Dropout Score: −0.6516

## BCL_00073_H_D55 (guide AGCACACAAGATGCACACCCNGG; listed as DNA, chemistry not given here)
[8]
  Enrichment Score: 0.4199
  Dropout Score: −0.8372

## Intron-sg1: validation sgRNA TCCGCGGCTGCTAGCAGCGC, SEQ ID NO 454, intron and promoter (expressed or natural sequence)
[5]
  ZNF263 occupancy: significant decrease
[2]
  CUL3 expression: decrease in CUL3 expression

From patent publication US12497610B2, “Functional genomics using CRISPR-CAS systems for saturating mutagenesis of non-coding elements, compositions, methods, libraries and applications thereof” (THE BROAD INSTITUTE, INC., priority 2015, dated 2025)
